Test results from PMC6944674, “Comparison of the Hepatotoxic Potential of Two Treatments for Autosomal-Dominant Polycystic Kidney DiseaseUsing Quantitative Systems Toxicology Modeling” (Pharmaceutical Research, 2020).
Where two headings read alike, the source gives them in different places.

Key:
[1] = parameters: method as in proprietary data not shown; details: ref proprietary data not shown, cited from earlier work
[2] = system: HepG2 cells; assay: Seahorse XFe96 cellular respiration assay (oxygen consumption rate); format: cell-based; details: 24 hour incubation
Experimental: To assess the potential effect of the five test articles on mitochondrial function, cellular respiration assays using a Seahorse XFe96 Flux Analyzer were conducted by Cyprotex (Macclesfield, UK) and overseen by the authors. HepG2 cells were incubated with each test article for 1 or 24 hours and tested for an effect on cellular respiration by measuring the oxygen consumption rate (OCR). Each study was conducted in triplicate. Importantly, the 1 hour culture was conducted in the absence of serum (i.e. no serum protein binding) as is standard for the Seahorse Analyzer assay conditions.

[3] = biological target: T1, human NTCP (Homo sapiens, UniProt Q14973); assay: NTCP inhibition in CHO cells stably expressing human NTCP (taurocholate); format: cell-based
T1 sequence (Q14973 1-349): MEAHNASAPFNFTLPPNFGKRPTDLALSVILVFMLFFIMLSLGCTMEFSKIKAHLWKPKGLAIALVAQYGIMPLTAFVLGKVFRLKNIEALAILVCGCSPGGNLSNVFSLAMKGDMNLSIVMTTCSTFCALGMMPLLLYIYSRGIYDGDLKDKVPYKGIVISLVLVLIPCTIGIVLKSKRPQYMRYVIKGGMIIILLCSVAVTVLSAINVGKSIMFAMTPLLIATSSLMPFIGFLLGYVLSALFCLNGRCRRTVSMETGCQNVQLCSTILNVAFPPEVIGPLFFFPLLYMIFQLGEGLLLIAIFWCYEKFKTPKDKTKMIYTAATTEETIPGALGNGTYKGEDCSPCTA
Experimental: (§1) The functional impact of lixivaptan, its three metabolites and tolvaptan on the human ABC (efflux) transporters BSEP and MRP3 and MRP4 was assessed for this project using in vitro vesicular transport inhibition assays. The inhibition of the human SLC (uptake) transporter NTCP was assessed using CHO cells stably expressing human NTCP. The concentration ranges used for the five test articles was determined based on the solubility of each compound in the assay solution. All transporter inhibition assays were conducted in triplicate by Solvo Biotechnology (Szeged, Hungary).
Figure B4. […] See Appendix A for more details.

[4] = cited from earlier work
[5] = cited from earlier work; remark: listed apart in the source
[6] = system: mitochondrial electron transport chain; assay: ETC inhibition parameter from MITOsym simulation of OCR data, translated to DILIsym; details: calculated from 24 h HepG2 OCR data and measured intracellular concentrations; lower = higher risk
From the text: The parameters calculated in this manner were then translated to DILIsym parameters using a conversion factor based on the relative activity of rotenone in the in vitro vs. in vivo environment (7).

[7] = biological target: T2, human BSEP (Homo sapiens, UniProt O95342); assay: BSEP vesicular transport inhibition assay (taurocholate, HEK-293 cell membrane vesicles); format: biochemical
T2 construct: host or cells: HEK-293 cell membrane vesicles
T2 sequence (O95342 whole entry): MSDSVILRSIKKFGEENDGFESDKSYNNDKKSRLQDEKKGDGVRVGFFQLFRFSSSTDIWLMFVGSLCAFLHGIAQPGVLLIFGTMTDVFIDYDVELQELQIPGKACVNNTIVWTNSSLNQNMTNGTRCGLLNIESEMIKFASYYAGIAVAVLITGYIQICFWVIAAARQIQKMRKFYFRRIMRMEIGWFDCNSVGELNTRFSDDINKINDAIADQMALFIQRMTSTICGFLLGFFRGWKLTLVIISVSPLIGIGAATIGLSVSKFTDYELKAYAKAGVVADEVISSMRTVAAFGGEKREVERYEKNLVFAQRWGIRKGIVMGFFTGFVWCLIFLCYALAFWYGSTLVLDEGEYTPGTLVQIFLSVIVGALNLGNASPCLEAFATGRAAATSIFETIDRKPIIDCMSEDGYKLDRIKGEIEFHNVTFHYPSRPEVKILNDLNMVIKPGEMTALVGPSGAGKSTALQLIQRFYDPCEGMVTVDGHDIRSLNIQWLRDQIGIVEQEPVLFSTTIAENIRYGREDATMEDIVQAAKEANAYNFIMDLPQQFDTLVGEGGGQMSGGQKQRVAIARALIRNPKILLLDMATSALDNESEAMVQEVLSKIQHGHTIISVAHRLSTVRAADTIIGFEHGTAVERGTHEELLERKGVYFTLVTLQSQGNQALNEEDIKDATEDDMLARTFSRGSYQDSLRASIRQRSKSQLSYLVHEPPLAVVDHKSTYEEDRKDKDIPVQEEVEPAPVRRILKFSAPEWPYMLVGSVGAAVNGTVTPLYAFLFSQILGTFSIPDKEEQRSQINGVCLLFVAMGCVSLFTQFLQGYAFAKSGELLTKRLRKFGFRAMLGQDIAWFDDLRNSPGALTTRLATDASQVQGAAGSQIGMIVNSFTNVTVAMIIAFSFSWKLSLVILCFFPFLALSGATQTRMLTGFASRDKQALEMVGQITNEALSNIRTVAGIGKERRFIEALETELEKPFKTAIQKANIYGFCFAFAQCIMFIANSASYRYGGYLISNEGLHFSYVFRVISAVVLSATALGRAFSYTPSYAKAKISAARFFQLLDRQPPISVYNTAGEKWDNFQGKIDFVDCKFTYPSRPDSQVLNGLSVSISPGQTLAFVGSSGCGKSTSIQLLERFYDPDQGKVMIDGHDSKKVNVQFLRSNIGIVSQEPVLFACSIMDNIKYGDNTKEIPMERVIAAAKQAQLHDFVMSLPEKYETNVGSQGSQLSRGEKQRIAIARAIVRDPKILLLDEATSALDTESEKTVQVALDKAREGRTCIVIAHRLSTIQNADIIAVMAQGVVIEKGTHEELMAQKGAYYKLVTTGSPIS
Experimental: as §1
For the simulation of bile acid transporter inhibition by lixivaptan in DILIsym, parameter values were selected for BSEP canalicular transport, basolateral transport (encompassing both MRP3 and MRP4), and NTCP transport. The parameter values for each include the inhibition constant, defined as the IC50 or Ki value, and the inhibition type, defined as competitive, non-competitive, or mixed inhibition.
In vesicular transport inhibition assays, lixivaptan and its metabolites each inhibited BSEP-mediated probe substrate accumulation (Figure B1) and MRP4-mediated probe substrate accumulation (Figure B2) dose-dependently.
Figure B1. […] See Appendix A for more details.

[8] = End Stage Renal Disease patients, ref personal communication, proprietary data not shown

Cc1ccc(F)cc1C(=O)Nc1ccc(C(=O)N2Cc3cccn3Cc3ccccc32)c(Cl)c1 [Lixivaptan, lixivaptan]
plasma fraction unbound ([1]; human): less than 1% | blood:plasma ratio [1]: 0.6 | effect on HepG2 oxygen consumption rate (mitochondrial respiration) [2]: reduce the HepG2 oxygen consumption rate (OCR) in a dose-dependent manner | inhibition of NTCP-mediated probe substrate accumulation ([3]; CHO cells): observed | IC50 ([3]; read-out: NTCP inhibition constant (IC50)): 19 µM | Clinical ALT >3X ULN ([4]; 100 mg BID, 60 days, hyponatremia protocol, ref study CK-LX3401 (not shown)): On treatment similar to placebo** | Clinical ALT >3X ULN ([4]; 400 mg BID, 7 days, ref clinical trial CK-LX1403): no individuals out of 67 showed elevated ALT | time to steady-state concentration ([5]; 100 mg BID, clinical, ref proprietary data not shown): 6 days | recovery in single-dose mass balance study ([5]; 100 mg single dose, after 7 days, ref clinical study 0892A1-109-US): 84% | decrease of exposure (AUC) in renal failure patients vs subjects with normal renal function [5, 8]: approximately 30% | decrease of peak concentration (Cmax) in renal failure patients vs subjects with normal renal function [5, 8]: approximately 30% | Cmax ([5]; after 7 days of 100 mg BID, ref clinical study CK-LX1403 (data not shown)): 2000 nM | Coefficient for ETC inhibition (DILIsym parameter) [6]: 535 µM | IC50 ([7]; read-out: BSEP inhibition constant (IC50)): 15 µM | inhibition of BSEP-mediated probe substrate accumulation ([7]; vesicular transport inhibition assay): inhibited
